Measurements as given in patent US12098154B2, “Inhibitors of cyclin-dependent kinases” (Dana-Farber Cancer Institute, Inc., priority 2015, dated 2024).
pIC50: −log10 of the molar value. Read-outs that look alike come from different tables or passages of the source.

What was measured:
Jurkat cells [1] = assay: Jurkat proliferation assay (CellTiter-Glo); type: cell-based; conditions: for pIC50: Homo sapiens, Jurkat
Method: (§1) Jurkat cells were seeded at a density of 25,000 cells/well in 96-well plates. Cells were then treated with the indicated compounds in a 10-pt dose escalation format from 1 nM to 10 μM or DMSO control for 72 hours. After 72 hours, the cells were assayed using CellTiter-Glo Luminescent Cell Viability Assay (Promega) to determine cell viability by measuring the amount of ATP present in each sample cell population, which is an indicator of cell metabolic activity. […] All data points were performed in biological triplicate. Error bars are +/−SD.
as §1, with “hrs.” for “hours.”, “hrs,” for “hours, the”

CDK2/CycA = CDK2/CycA (Homo sapiens, UniProt P24941); assay: CDK2/CycA inhibition (Tables A1, A2); type: biochemical
CDK12/CCNK complex = CDK12/CCNK complex (Homo sapiens, UniProt Q9NYV4); assay: Electrospray ionization mass spectra of CDK12/CCNK complex after treatment; type: binding; conditions: 1 hr at room temperature
Text: The zero-charge mass spectra in the upper panel and inset is the result of deconvolution of the raw mass spectrum in the lower panel. A. CCNK. C, phosphorylated CDK12. D, CDK12.
The zero-charge mass spectra in the upper panel and inset is the result of deconvolution of the raw mass spectrum in the lower panel. A, CCNK. B, phosphorylated and E-9 labeled CDK12. C, E-9 labeled CDK12.

Jurkat cells [2] = assay: Growth assay with and without washout; type: cell-based; conditions: 1 uM, 4 hours treatment, assayed 68 hours after washout
Method: Cells were treated with each compound for 4 hours and either no washout (no washout) or had compound removed by washing cells with media (washout). Sixty-eight (68) hours after washout, the cells were assayed for antiproliferative effects. Error bars indicate +/−SD.
4 hours after treatment, cells were either not treated or washed three times with RPMI media to remove all compound. Cells were replated and allowed to grow for 68 hours. Cells were assayed using celltiter glo (Promega) to determine cell viability by measuring the amount of ATP present, which is an indicator of cell metabolic activity. Results are graphed as luminescent values (FIG. 1).

CDK7 = molecular target: T1, CDK7 (Homo sapiens, UniProt P50613); assay: Pulldown assay with biotin-THZ1, blot for Cyclin H; type: cell-based; conditions: Jurkat cells treated with 1 uM or 200 nM
T1 construct: endogenous in cells; host or cells: Jurkat
Method: Compounds E9 and E17 were able to block pulldown of cyclin K at 1 μM and 200 nM. Specifically. […] Decreased pulldown of cyclin K with biotin-THZ1 indicated a loss of CDK12 binding.
(§2) 6 hours after treatment, cells were washed and harvested by resuspending in lysis buffer (50 mM Hepes pH 7.4, 150 mM NaCl, 1% NP-40, 5 mM EDTA, protease and phosphatase inhibitors) and lysing on ice 30 minutes. Lysates were cleared by centrifugation at 15,000 rpm 30 minutes. Biotin-labeled THZ1 was added to 1 uM to lysates and rotated at 4° C. overnight. Streptavidin-agarose beads were washed and 30 uL slurry was added to each lysate and rotated for 1 hour at 4° C. Beads were washed 5 times with lysis buffer and 50 uL 2×LDS buffer was added to each sample. Samples were boiled and equal volume of protein was loaded onto gel. Gel was transferred to nitrocellulose and blotted for Cyclin K and Cyclin H.

CDK7/CycH = CDK7/CycH (Homo sapiens, UniProt P50613); assay: CDK7/CycH inhibition (Tables A1, A2); type: biochemical
CDK12 = molecular target: T2, CDK12 (Homo sapiens, UniProt Q9NYV4); assay: Pulldown assay with biotin-THZ1, blot for Cyclin K; type: cell-based; conditions: Jurkat cells treated with 1 uM or 200 nM
T2 construct: endogenous in cells; host or cells: Jurkat
Method: Specifically. […] Decreased pulldown of cyclin K with biotin-THZ1 indicated a loss of CDK12 binding.
as §2

CDK9/CycT = CDK9/CycT (Homo sapiens, UniProt P50750); assay: CDK9/CycT inhibition (Tables A1, A2); type: biochemical
[3] = test system: Pol II Ser2 phosphorylation and MCL1 levels; assay: Washout expression assay (western blot); type: cell-based; conditions: Jurkat cells, 1 uM, 4 hours, 6 hours
Method: 4 hours after treatment, cells were either not treated or washed three times with RPMI media to remove all compound. Cells were replated and allowed to grow for 6 hours. Cells were harvested, washed 3 times with PBS and resuspended in RIPA buffer (25 mM Tris-HCl (pH 7.6), 150 mM NaCl, 1% NP-40, 1% sodium deoxycholate, 0.1% SDS). Equal amount of protein was loaded onto gel and blotted for Pol II Ser2 (Millipore 04-1571), total pol II (Santa Cruz 17798), Tubulin (Cell Signaling 11H10) or MCL1 (Cell Signaling 4572S)

CDK12 and CDK13 = assay: KiNativ kinome profiling; type: binding; conditions: 1 μM, 6 hrs
Method: Jurkat cells were seeded at a density of 100 million cells/50 mL. Cells were treated with E9 (1 μM) or DMSO control for 6 hrs. Cells were washed twice with cold phosphate-buffered saline (PBS). PBS-washed cell pellets were flash frozen and subjected to KiNativt™ kinome profiling at ActivX Biosciences, Inc. according to their specifications using their desthiobiotin-ATP probe. Peptide sequences shown in Table A4 belong to the indicated kinase(s) and were detected by mass spectrometry (MS) under DMSO control conditions following enrichment for biotinylated proteins by streptavidin pulldown and subsequent proteolysis. Kinases labeled by the reactive desthiobiotin-ATP probe indicate that the kinase was accessible to desthiobiotin-ATP probe binding. Results shown are normalized to these paired DMSO controls and numbers represent the percentage (compared to DMSO control) of MS signal lost for sequences of an indicated kinase, eg—numbers approaching 100% indicate that test compound effectively out-competed the desthiobiotin ATP probe for binding to the kinase, resulting in decreased labeling and enrichment for peptides representing this kinase.

HAP1 cells = assay: HAP1 cell proliferation assay, wild type vs CDK12 C1039S/CDK13 C1017S; type: cell-based; conditions: 72 hrs proliferation
Method: Double mutant cells are 4-fold less sensitive to E17 compared to wild type cells indicating rescue of CDK12/13 inhibition-induced proliferation defects. HAP1 cells were seeded at a density of 12,000 cells/well in 96-well plates. Twenty-four hours later, cells were treated with the indicated compounds in a 10-pt dose escalation format from 1 nM to 10 μM or DMSO control for 72 hours. After 72 hours, the cells were assayed using CellTiter-Glo Luminescent Cell Viability Assay (Promega) to determine cell viability by measuring the amount of ATP present in each sample cell population, which is an indicator of cell metabolic activity. Results were graphed as fraction of the DMSO control at 72 hours. All data points were performed in biological triplicate. Error bars are +/−SD.
Genome Editing: The CRISPR/Cas9 system was used to mutate the endogenous CDK12 and CDK13 loci to encode for CDK12 C1039S and CDK13 C1017S, both of which are putative CDK12/13 inhibitor-refractory mutants. Target-specific oligonucleotides were cloned into pX330, which carries a codon-optimized version of Cas9 and was further modified to express GFP for identifying transfectants. […]

Sequence of CDK7/CycH (P50613 whole entry): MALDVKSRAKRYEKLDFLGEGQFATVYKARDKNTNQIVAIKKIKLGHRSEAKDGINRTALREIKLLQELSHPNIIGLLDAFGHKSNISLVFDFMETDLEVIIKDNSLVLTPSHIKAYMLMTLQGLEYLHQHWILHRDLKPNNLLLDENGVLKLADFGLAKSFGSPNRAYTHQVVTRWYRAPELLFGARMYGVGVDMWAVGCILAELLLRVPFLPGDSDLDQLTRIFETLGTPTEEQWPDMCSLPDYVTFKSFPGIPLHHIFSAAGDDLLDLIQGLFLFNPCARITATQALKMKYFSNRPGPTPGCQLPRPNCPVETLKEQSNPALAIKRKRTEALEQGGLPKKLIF
Sequence of CDK7/CycH (P51946 whole entry partner): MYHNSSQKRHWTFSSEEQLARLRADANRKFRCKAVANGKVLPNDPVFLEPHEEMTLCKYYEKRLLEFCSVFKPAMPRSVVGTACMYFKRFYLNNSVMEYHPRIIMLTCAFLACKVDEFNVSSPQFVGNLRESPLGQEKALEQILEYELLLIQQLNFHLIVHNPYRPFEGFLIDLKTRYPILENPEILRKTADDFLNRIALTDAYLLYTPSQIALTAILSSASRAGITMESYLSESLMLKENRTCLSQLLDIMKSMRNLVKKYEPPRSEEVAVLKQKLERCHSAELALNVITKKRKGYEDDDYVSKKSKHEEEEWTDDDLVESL
T2 sequence (Q9NYV4 whole entry): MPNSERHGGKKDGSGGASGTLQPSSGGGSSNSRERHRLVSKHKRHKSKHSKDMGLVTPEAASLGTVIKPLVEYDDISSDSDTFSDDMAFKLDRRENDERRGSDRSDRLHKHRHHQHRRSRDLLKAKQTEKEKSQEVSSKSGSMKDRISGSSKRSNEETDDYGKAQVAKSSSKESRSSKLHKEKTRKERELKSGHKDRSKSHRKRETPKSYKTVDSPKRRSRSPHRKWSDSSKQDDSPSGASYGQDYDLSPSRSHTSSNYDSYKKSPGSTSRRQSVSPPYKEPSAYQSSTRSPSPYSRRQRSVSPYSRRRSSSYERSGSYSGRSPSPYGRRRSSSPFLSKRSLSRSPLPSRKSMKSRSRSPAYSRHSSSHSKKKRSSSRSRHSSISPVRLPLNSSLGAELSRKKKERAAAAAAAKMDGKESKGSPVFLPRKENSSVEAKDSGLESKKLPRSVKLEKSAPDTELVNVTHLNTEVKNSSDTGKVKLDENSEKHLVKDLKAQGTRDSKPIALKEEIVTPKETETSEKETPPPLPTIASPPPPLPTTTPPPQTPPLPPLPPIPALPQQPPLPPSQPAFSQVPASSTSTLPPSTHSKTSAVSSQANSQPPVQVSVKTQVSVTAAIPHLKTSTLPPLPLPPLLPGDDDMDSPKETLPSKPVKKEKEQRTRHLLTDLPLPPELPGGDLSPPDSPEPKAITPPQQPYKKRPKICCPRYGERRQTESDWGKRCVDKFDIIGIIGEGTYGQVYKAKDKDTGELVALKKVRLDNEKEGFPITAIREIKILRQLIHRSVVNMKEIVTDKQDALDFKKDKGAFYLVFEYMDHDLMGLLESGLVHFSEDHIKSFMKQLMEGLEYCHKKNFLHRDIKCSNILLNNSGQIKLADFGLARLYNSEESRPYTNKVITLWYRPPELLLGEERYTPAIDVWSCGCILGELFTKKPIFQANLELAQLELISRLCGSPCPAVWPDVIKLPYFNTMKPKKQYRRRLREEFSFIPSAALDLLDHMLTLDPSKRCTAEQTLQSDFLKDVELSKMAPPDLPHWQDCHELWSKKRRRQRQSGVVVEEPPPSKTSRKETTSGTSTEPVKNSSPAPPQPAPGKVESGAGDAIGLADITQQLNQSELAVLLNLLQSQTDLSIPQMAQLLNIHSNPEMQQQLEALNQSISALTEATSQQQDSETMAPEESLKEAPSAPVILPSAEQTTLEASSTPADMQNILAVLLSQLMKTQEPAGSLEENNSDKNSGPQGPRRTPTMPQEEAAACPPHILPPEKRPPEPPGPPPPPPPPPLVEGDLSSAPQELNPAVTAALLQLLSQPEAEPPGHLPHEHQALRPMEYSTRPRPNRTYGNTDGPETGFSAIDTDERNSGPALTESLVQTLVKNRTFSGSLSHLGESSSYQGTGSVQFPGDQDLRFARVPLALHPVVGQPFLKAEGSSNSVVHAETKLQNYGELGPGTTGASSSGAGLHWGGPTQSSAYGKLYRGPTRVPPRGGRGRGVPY
T2 sequence (O75909 whole entry partner): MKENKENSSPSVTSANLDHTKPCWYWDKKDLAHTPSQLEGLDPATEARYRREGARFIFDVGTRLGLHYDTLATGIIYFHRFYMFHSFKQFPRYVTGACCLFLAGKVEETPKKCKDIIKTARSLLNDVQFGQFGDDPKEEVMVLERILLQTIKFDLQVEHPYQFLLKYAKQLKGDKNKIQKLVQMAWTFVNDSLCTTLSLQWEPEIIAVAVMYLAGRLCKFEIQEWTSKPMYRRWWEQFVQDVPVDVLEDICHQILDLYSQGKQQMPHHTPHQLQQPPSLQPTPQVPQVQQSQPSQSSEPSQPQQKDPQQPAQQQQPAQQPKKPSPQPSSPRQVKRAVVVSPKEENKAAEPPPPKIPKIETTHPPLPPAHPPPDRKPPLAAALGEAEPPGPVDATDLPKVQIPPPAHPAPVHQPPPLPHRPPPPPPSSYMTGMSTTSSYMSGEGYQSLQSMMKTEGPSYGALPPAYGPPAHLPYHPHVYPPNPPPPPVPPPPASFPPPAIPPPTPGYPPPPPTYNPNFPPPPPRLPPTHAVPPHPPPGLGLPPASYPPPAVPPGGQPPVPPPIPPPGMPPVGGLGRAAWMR
T1 sequence (P50613 2-346 limits assumed): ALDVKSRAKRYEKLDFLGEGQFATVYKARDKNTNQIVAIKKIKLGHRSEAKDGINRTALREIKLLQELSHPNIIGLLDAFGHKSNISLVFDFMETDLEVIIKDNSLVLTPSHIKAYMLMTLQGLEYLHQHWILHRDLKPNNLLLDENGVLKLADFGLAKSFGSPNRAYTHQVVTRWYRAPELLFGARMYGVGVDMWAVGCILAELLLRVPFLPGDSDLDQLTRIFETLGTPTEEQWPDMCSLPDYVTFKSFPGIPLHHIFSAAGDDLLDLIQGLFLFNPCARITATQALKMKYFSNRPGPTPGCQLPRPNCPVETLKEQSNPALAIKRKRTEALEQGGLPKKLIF
T1 sequence (P51946 whole entry partner): as the sequence (P51946 whole entry partner) above
T1 sequence (P51948 whole entry partner): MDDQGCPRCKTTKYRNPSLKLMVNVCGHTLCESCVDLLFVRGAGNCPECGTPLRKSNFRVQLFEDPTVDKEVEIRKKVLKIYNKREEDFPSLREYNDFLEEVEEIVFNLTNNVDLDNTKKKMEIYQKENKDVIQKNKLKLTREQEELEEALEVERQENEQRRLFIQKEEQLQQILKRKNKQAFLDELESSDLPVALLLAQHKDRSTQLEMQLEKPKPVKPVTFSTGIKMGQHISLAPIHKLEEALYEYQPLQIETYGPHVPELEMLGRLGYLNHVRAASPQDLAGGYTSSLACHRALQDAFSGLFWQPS
Sequence of CDK9/CycT (P50750 whole entry): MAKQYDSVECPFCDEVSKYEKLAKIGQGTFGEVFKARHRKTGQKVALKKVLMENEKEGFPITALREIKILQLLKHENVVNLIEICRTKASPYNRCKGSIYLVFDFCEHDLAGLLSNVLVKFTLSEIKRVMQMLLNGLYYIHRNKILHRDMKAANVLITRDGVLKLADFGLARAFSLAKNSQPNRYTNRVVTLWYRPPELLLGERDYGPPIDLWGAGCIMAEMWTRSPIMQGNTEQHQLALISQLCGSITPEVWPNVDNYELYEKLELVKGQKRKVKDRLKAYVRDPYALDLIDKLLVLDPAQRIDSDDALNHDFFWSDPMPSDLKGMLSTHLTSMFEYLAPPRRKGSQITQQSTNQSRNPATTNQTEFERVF
Sequence of CDK9/CycT (O60563 whole entry partner): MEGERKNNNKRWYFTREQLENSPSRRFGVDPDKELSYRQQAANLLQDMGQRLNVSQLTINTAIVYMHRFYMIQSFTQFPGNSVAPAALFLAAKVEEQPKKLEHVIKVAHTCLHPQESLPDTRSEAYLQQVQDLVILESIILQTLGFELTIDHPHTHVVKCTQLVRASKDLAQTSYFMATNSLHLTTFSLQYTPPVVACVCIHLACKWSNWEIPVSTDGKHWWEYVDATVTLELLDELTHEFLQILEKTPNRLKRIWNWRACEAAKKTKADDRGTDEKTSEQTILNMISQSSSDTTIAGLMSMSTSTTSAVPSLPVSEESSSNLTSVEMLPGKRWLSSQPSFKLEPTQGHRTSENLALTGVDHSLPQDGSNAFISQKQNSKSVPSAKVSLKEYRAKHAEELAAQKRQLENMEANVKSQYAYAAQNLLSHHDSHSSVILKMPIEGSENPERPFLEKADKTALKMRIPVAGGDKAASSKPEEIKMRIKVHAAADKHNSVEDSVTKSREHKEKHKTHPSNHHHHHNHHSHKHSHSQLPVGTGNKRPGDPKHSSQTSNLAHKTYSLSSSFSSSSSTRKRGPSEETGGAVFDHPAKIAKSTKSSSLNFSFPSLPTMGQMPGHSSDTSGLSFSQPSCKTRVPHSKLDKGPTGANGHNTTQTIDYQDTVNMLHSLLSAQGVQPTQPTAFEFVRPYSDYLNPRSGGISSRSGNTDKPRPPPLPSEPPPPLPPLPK
Sequence of CDK12/CCNK complex (Q9NYV4 whole entry): as the sequence (Q9NYV4 whole entry) above
Sequence of CDK12/CCNK complex (O75909 whole entry partner): as the sequence (O75909 whole entry partner) above

Row | Compound | Mode of inhibition of Jurkat T-ALL cell proliferation (Jurkat cells [1]) | pIC50 (Jurkat cells [1]; 72 h, read-out: IC50 on Jurkat T-ALL cell proliferation) | pIC50 (Jurkat cells [1]; read-out: Jurkat IC50) | pIC50 (CDK2/CycA) | Labeling of CDK12 (mass shift) (CDK12/CCNK complex) | Inhibition of Jurkat cell viability with and without washout (Jurkat cells [2]) | Pulldown of Cyclin H by biotin-THZ1 (CDK7 binding) (CDK7) | pIC50 (CDK7/CycH) | Pulldown of Cyclin K by biotin-THZ1 (CDK12 binding) (CDK12) | pIC50 (CDK9/CycT) | Effect on Polymerase II Serine 2 phosphorylation and MCL1 levels with and without washout [3] | Kinases bound in Jurkat cells (competition with desthiobiotin-ATP probe) (CDK12 and CDK13) | pIC50 (Jurkat cells [1]; 72 h, CellTiter-Glo, read-out: IC50 on Jurkat T-ALL cell proliferation) | Loss of sensitivity of CDK12 C1039S/CDK13 C1017S HAP1 cells compared to wild type HAP1 cells (HAP1 cells) [fold]
1 | C=CC(=O)Nc1cccc(Nc2cc(N3CCCCC3CCO)nc3c(CC)cnn23)c1 (centres unmarked) [E-9(SB1-E-23), N-(3-(3-Ethyl-5-(2-(2-hydroxyethyl)piperidin-1-yl)pyrazolo[1,5-a]pyrimidin-7-ylamino)phenyl)acrylamide] | irreversiably inhibit | > 7.00 | 7.10 | 6.60 | Only the masses of CDK12 proteins shift after treatment | irreversibly inhibit Jurkat cell viability | not able to bind to CDK7 | 5.96 | blocks the pulldown of Cyclin K | 7.67 | irreversible effect | binds predominantly CDK12 and CDK13 |  | 
2 | C=CC(=O)Nc1cccc(Nc2nc(N[C@H]3CC[C@H](N(C)C)CC3)nc3c(CC)cnn23)c1 [SB1-E-17, N-(3-(2-((1r,4r)-4-(Dimethylamino)cyclohexylamino)-8-ethylpyrazolo[1,5-a][1,3,5]triazin-4-ylamino)phenyl)acrylamide] | irreversiably inhibit |  | 7.22 | 6.61 |  | irreversibly inhibit Jurkat cell viability | not able to bind to CDK7 | 5.99 | blocks the pulldown of Cyclin K | 6.77 | irreversible effect |  | > 7.00 | 4
